Measured values as given in patent publication US9545412B2, “Composition and methods used during anti-HIV treatment” (UNIVERSITE D'AIX-MARSEILLE, priority 2008, dated 2017).

What was measured:
[1] = tested on: control fibroblasts; test: Nuclear morphology of control mouse cells in culture; type: cell-based
Description: (§1) The dermal fibroblasts of a control subject (GM00038) and of patients afflicted with progeria and carriers of the mutation G608G (AG11498 and AG01972) were obtained from the Coriell Cell Repository. The HeLa cells come from the American Type Culture Collection. The cells are cultivated in DMEM (Gibco) supplemented with 10% FBS (Gibco) and 1% antibiotic-antimycotic (Gibco). The fibroblasts come from tails of 12-day-old mice (Varela and al., 2005). The concentration and the duration of treatment with the statin and the aminobiphosphonate are indicated in the legende of the figures. During the combined statin+aminobiphosphonate treatment in the presence of farnesol and/or of geranylgeraniol, 1 mM of pravastatin and 1 mM of zoledronate were added to the culture medium with increasing concentrations of farnesol and/or of geranylgeraniol. The percentage of abnormal nuclei is measured 48 h after the beginning of the treatment.
(§2) Quantification of the effect of pravastatin (1 μM) and zoledronate (1 μM), alone or in combination, on the nuclear morphology of Zmpste24^−/− mouse cells (a) and control mouse cells (b) in culture, in the presence of farnesol, geranylgeraniol or both molecules.

[2] = tested on: Zmpste24^−/− mouse cells; test: Nuclear morphology of Zmpste24^−/− mouse cells in culture; type: cell-based; settings: pravastatin (1 μM) and zoledronate (1 μM), alone or in combination
Description: as §1, §2

[3] = tested on: cells of progeria patients; test: Quantitative analysis of nuclear morphology of cells of progeria patients; type: cell-based, human; settings: added to pravastatin+zoledronate, abnormal nuclei measured 48 h after beginning of treatment
Description: as §1, with “During the combined statin+aminobiphosphonate treatment in the presence of farnesol and/or of geranylgeraniol, 1 mM of pravastatin and 1 mM of zoledronate were added to the culture medium with increasing concentrations of farnesol and/or of geranylgeraniol.” left out, “treatment. […]” for “treatment.”
The dilution of the primary antibodies is 1/100 for the goat polyclonal anti-prelamin A antibody (Sc-6214, Santa Cruz Biotechnologies), 1/40 for the anti-lamin A/C antibody (4A7 provided by G. Morris), 1/200 for the Rabbit anti-calreticulin antibody (Stressgen) and 1/100 for the B1 anti-lamin antibody (Abcam). […] Digital images are recorded with a Leica DMR microscope equipped with a CoolSnap camera or with a Leica TCS SP5 confocal microscope. […] More than 100 nuclei were analysed in the control fibroblasts for each of the treatments. The number of nuclei of cells of patients afflicted with progeria analysed is 250 (passage 8), 198 (passage 13) and 150 (passage 20). […]

[4] = tested on: prelamin A; test: Mass spectrometry (MALDI-ToF) of nuclear envelope proteins, Zmpste24^−/− mouse fibroblasts; type: cell-based; settings: FTI-treated Zmpste24^−/− mouse cells
Description: (§3) The fibroblasts of control and Zmpste24^−/− mice as well as the cells lymphoblastoids of progeria patients have been homogenised, the nuclei isolated via ultracentrifugation and the nuclear proteins obtained as described in Blobel and Potter, V. R. Nuclei from rat liver: isolation method that combines purity with high yield, Science 154, 1662-1665, 1966. The proteins of the nuclear lamina were separated via SDS-PAGE electrophoresis, and the strips containing the lamin A, the prelamin A and the progerin were excised. The fragments of the gel were washed twice with […] of a ammonium bicarbonate/acetonitrile mixture (70/30, 25 mM), dried (15 min, 90° C.) and digested (1 h, 60° C.) with trypsin (12 ng/ml, Promega) in the ammonium bicarbonate 25 mM. […] The data collected using 200 laser firings produce spectra analysed with the Data Explorer programme (version 4.0.0.0, Applied Biosystems).
FIG. 12 legend: a mass spectrometry analysis of the proteins extracted from the nuclear envelop of the untreated fibroblasts (a) or treated with a mixture of pravastatin+zoledronate (1 μM apiece, b) stemming from Zmpste24^−/− mice. […] Each peak corresponds to a tryptic peptide of the progerin and is marked with a monoisotopic mass measured the experiment and with the theoritical mass (in parentheses). […]

[5] = tested on: progerin; test: Mass spectrometry (MALDI-ToF) of nuclear envelope proteins, cells of progeria patients; type: cell-based, human; settings: FTI 2.5 μM
Description: as §3
FIG. 11 legend: mass spectrometry analysis of the proteins extracted from the nuclear envelop of the untreated cells (a), of the cells of the progeria patients treated with FTI (2.5 μM, b) or treated with the mixture of pravastatin+zoledronate (1 μM apiece, c). […] Each peak corresponds to the tryptic peptide of the progerin and is marked with the measured monoisotopic mass in experiment and with the theoretical mass (between parentheses). […]

[6] = tested on: Zmpste24^−/− mice; test: Progeroid phenotype and lifespan of Zmpste24^−/− mice (Example 7); type: in vivo, mouse; settings: daily treatment with one drug alone
Method: All of the experiments on mice are governed by the rules set down by the Animal Experiment Committee of the University of Oviedo (Spain). The pravastatin (100 mg/kg/day) and the zoledronate (100 mg/kg/day) diluted in PBS are administered to the mice every day.

[7] = tested on: prelamin A; test: Immunohistochemistry: prelamin A level in healthy cells; type: cell-based, human; settings: Pravastatin 100 μM for 12 hours, Zoledronate 20 μM for 6 hours; in association or alone
Method: (§4) A cell culture is trypsinized, and the cells are counted on a Neubauer cytometer.
(§5) Labtech culture wells (Nunc, ref. 177399) are seeded in an amount of 5×10^4 cells per well.
(§6) The complete culture medium is supplemented by the treatment(s) (statin, NBP, both), and the cells are cultivated for the ad hoc time.
(§7) The cells are fixed in a paraformaldehyde 4% solution (in PBS) for 10 minutes at room temperature.
(§8) […], the cells are incubated for 5 minutes at room temperature in a humidity chamber in 50 μl of permeabilization solution:
(§9) The primary antibody is diluted to 1/100 in 50 μl of incubation solution and placed in contact with the cells for 1 hour at room temperature in a humidity chamber.
(§10) The primary antibodies used are of two types: • Mouse anti-lamin A/C (N-terminal side), clone 4A7, donated by G. Morris (Oswestry, UK) • Goat anti-prelamin A (C-terminal end 15 aa), product SC6214, Santa Cruz Biotchnology, Inc.
(§11) The incubation with the secondary antibody takes place for 1 hour in […] of incubation solution at room temperature in a humidity chamber. […]
(§12) The cells are immersed in one drop of VectaShield (Vector), covered with an object-cover slide and observed under a fluorescence microscope (Leica DMR, Leica Microsystems), equipped with a coolSNAP camera (Princeton). […]

[8] = tested on: healthy cells; test: Immunohistochemistry: toxicity / deformed nuclei on healthy cells; type: cell-based, human; settings: Pravastatin 100 μM for 12 hours, Zoledronate 20 μM for 6 hours; in association or alone
Method: as §4, §5, §6, §7, §8, §9, §10, §11, §12

Structure (SMILES) | effect on nuclear morphology of control fibroblasts [1] | effect on the nuclear morphology improvement given by the pravastatin+zoledronate treatment [2] | effect on the nuclear morphology improvement given by the pravastatin+zoledronate treatment [3] | prelamin A level produced in healthy cells [7] [%] | also measured
CC(C)=CCCC(C)=CCCC(C)=CCO [farnesol] | Neither farnesol nor geranylgeraniol have any effect | nullify the effect of the pravastatin+zoledronate treatment | nullifies the effect of the pravastatin+zoledronate treatment |  | 
CC(C)=CCC/C(C)=C/CC/C(C)=C/CC/C(C)=C/CO [geranylgeraniol] | Neither farnesol nor geranylgeraniol have any effect | nullify the effect of the pravastatin+zoledronate treatment | blocks the effect of the treatment |  | 
COC(=O)[C@H](CCSC)NC(=O)c1ccc(NC[C@@H](N)CS)cc1-c1ccccc1 [FTI-277] |  |  |  |  | geranyl-geranylated prelamin A peptide [4]: detected a peptide which mass is compatible with a geranyl-geranylated fragment of the prelamine A; quantity of farnesylated prelamin A [4]: reduction in the quantity of farnesyled prelamine A; farnesylated and carboxymethylated progerin peak [5]: considerable reduced; geranylgeranylated progerin peptides [5]: appears geranylgeranylated and phosphoryl
O=P(O)(O)C(O)(Cn1ccnc1)P(=O)(O)O [zoledronate, (1-hydroxy-2-imidazol-1-yl-1-phosphono-ethyl) phosphonic acid] |  |  |  | 15 | lifespan of Zmpste24^−/− mice, drug in isolation [6]: neither of the drugs in isolation, pravastatin or zoledronate, increases the lifespan
CC[C@H](C)C(=O)O[C@H]1C[C@H](O)C=C2C=C[C@H](C)[C@H](CC[C@@H](O)C[C@@H](O)CC(=O)O)[C@H]21 [pravastatin] |  |  |  | 25 | rate of deformed nuclei (sign of toxicity on healthy cells) [8]: around 12%
